Experiment [1] addresses Protein mono-ADP-ribosyltransferase PARP10 (Homo sapiens, UniProt Q53GL7, L926G). The experiment can be described thus: Inhibition of PARP-10 L926G mutant (unknown origin) mediated ADP-ribosylation of SRPK2 by fluorescence analysis using 3 uM SRPK2 as a substrate.
Experiment [2] has as its target T1, Protein mono-ADP-ribosyltransferase PARP10 (Homo sapiens, UniProt Q53GL7).
T1 sequence (Q53GL7 whole entry): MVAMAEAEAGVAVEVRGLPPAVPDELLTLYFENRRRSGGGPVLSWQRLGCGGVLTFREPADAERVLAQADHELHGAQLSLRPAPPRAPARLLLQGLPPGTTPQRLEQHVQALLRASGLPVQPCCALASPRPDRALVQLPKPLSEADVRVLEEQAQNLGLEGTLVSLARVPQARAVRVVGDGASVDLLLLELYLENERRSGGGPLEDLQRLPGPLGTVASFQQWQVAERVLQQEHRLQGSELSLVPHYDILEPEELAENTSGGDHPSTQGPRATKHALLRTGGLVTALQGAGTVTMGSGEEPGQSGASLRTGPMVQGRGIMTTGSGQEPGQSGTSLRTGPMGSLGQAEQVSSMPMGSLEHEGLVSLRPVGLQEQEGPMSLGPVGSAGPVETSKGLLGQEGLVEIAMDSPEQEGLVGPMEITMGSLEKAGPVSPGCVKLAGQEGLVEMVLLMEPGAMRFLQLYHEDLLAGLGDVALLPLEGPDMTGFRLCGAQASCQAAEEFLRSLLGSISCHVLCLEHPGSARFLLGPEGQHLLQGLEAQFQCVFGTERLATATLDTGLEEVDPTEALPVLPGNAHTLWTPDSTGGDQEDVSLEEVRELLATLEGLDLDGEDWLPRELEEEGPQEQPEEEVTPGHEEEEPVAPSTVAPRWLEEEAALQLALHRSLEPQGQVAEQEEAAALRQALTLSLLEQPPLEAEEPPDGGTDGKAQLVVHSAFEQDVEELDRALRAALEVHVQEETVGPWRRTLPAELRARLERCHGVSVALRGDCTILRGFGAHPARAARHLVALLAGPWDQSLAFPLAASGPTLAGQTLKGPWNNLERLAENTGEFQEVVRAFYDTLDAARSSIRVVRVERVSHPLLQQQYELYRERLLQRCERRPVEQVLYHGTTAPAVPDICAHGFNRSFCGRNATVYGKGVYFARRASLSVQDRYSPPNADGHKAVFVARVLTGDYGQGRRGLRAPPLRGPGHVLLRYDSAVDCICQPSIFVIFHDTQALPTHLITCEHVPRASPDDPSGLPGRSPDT
Briefly: Inhibition of PARP-10 (unknown origin) mediated ADP-ribosylation of SRPK2 by fluorescence analysis using 3 uM SRPK2 as a substrate.

The target in experiment [3] is Poly [ADP-ribose] polymerase 1 (Homo sapiens, UniProt P09874). Briefly: Inhibition of PARP1 (unknown origin) by fluorescence analysis.

pIC50: −log10 of the molar value. Some results are limits rather than exact numbers.

Protein mono-ADP-ribosyltransferase PARP10 (Homo sapiens, UniProt Q53GL7, L926G), sequence (Q53GL7 whole entry L926G): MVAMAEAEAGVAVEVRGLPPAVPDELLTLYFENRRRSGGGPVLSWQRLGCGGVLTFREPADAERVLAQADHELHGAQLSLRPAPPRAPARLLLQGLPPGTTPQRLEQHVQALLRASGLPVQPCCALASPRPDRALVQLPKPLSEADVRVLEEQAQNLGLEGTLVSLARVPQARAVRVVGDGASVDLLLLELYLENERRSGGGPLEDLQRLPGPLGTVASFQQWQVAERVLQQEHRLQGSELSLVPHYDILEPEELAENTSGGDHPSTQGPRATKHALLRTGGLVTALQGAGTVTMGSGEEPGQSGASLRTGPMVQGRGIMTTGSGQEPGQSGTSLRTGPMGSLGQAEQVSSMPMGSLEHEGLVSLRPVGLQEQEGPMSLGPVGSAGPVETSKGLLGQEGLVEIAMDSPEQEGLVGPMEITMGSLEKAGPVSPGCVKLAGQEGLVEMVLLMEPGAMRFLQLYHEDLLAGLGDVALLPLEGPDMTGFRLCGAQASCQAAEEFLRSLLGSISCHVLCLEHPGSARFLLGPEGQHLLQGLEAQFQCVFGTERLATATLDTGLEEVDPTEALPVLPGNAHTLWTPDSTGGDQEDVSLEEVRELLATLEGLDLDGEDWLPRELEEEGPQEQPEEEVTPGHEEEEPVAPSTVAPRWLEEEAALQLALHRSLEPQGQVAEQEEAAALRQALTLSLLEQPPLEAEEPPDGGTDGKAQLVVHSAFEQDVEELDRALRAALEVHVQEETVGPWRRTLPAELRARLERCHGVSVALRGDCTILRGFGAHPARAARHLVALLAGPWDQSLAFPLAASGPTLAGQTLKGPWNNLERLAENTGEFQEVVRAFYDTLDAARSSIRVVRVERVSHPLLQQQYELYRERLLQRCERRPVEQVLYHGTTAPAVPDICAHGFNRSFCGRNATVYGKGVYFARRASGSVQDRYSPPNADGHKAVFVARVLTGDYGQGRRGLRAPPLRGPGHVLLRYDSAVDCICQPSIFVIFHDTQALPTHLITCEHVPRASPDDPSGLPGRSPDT
Poly [ADP-ribose] polymerase 1, sequence (P09874 whole entry): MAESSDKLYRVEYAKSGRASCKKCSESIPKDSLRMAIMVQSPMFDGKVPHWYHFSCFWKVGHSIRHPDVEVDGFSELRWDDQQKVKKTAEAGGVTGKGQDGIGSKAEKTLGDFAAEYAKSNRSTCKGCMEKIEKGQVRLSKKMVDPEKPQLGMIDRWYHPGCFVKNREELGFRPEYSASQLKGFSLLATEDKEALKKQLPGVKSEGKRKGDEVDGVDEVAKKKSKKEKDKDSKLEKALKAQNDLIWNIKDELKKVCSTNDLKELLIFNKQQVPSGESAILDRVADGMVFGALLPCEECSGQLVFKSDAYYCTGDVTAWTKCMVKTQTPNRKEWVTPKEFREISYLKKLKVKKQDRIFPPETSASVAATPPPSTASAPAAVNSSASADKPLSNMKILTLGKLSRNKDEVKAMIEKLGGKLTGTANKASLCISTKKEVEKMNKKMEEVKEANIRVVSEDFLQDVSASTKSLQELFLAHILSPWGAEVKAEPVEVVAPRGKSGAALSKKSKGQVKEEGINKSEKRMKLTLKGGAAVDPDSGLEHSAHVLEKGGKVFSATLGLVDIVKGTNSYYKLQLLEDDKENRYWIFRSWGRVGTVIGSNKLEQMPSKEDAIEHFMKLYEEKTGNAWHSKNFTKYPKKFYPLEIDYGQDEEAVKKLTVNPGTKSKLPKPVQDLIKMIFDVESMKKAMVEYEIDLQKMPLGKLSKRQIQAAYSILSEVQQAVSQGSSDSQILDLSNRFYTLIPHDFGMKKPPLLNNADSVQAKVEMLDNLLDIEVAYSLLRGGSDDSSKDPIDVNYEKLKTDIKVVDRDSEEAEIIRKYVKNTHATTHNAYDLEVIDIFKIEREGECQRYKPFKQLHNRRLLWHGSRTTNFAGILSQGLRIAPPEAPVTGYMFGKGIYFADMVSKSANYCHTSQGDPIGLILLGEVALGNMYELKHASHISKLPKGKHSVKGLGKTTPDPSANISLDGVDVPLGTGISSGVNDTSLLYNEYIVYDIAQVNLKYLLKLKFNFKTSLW

The pIC50 is −log10 of the IC50, conventionally taken in molar units. For `COc1ccc2c(c1)C(=O)NCC2`, the negative-log IC50 (pIC50) is 3.76 in experiment [1], less than 4.00 in experiment [2] and less than 4.00 in experiment [3].
As to `O=C1NCCc2ccc(Br)cc21`, the pIC50 was 5.07 in experiment [1], less than 4.00 in experiment [2] and less than 4.00 in experiment [3].
On to `O=C1NCCc2ccc(C(F)(F)F)cc21`, for which the results for the pIC50 in experiment [1], in experiment [2] and in experiment [3] were 4.18, less than 4.00 and less than 4.00, respectively.
Consider `Cc1ccc2c(c1)C(=O)NCC2`, for which the pIC50 in experiment [1] was 3.95; in experiment [2], less than 4.00; in experiment [3] it was less than 4.00.
Consider `O=C1NCCc2ccc(Cl)cc21`, for which the figures for the pIC50 in experiment [1], in experiment [2] and in experiment [3] were 4.79, less than 4.00 and 4.00, respectively.
In experiment [1], `O=C1NCCc2ccc(O)cc21` had a pIC50 of less than 4.52.

Source of the values: ChEMBL document CHEMBL3627698, “Selective inhibition of PARP10 using a chemical genetics strategy” (Bioorg Med Chem Lett, 2015).
